In patent publication US20220106328A1, “HETEROCYCLIC COMPOUNDS” (Hoffmann-La Roche Inc., priority 2019, published 2022):
pIC50: −log10 of the molar value.

Target: T1, MAGL (Homo sapiens, UniProt Q99685)
T1 sequence (Q99685 1-303): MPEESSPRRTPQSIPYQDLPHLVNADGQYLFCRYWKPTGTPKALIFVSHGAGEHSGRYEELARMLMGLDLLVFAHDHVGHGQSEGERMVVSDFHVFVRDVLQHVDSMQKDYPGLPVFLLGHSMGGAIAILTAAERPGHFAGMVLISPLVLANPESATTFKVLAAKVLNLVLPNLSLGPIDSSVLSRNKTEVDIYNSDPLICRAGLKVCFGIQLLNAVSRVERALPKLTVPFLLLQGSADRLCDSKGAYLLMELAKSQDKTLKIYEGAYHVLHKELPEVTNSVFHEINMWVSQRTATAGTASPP
Test: 2-AG assay (MAGL inhibitory activity; hydrolysis of 2-arachidonoylglycerol to arachidonic acid followed by mass spectrometry)
Assay type: biochemical
Conditions: 8 μM 2-arachidonoylglycerol, 15 min pre-incubation, 30 min incubation at rt, RapidFire MS read-out
Protocol: Compounds were profiled for MAGL inhibitory activity by determining the enzymatic activity by following the hydrolysis of the natural substrate 2-arachidonoylglycerol resulting in arachidonic acid, which can be followed by mass spectrometry. This assay is hereinafter abbreviated “2-AG assay”.
A C18 SPE cartridge (G9205A) was used in an ACN/water liquid setup. […] The activity of the compounds was calculated based on the ratio of intensities [arachidonic acid/d8-arachidonic acid].

pIC50	SMILES
5.88	O=C1CO[C@H]2CCN(C(=O)N3CCC(Cc4ccc(C(F)(F)F)cc4)CC3)C[C@@H]2N1 (single isomer, unassigned) [Example 29, (−)- or (+)-trans-6-[4-[[4-(Trifluoromethyl)phenyl]methyl]piperidine-1-carbonyl]-4,4a,5,7,8,8a-hexahydropyrido[4,3-b][1,4]oxazin-3-one]
6.28	O=C1CO[C@H]2CCN(C(=O)N3CCC(c4cn(CCO)c5ccc(Cl)cc45)CC3)C[C@@H]2N1 (single isomer, unassigned) [Example 30, (−)- or (+)-trans-6-[4-[5-Chloro-1-(2-hydroxyethyl)indol-3-yl]piperidine-1-carbonyl]-4,4a,5,7,8,8a-hexahydropyrido[4,3-b][1,4]oxazin-3-one]

Further lines, the compound ahead of its results:

SMILES	pIC50
O=C1CO[C@@H]2CCN(C(=O)N3CCC4(CC3)CC(Oc3ccc(C(F)(F)F)cc3F)C4)C[C@H]2N1 (single isomer, unassigned) [Example 26, (+)- or (−)-trans-6-[2-[2-Fluoro-4-(trifluoromethyl)phenoxy]-7-azaspiro[3.5]nonane-7-carbonyl]-4,4a,5,7,8,8a-hexahydropyrido[4,3-b][1,4]oxazin-3-one]	6.93
O=C1CO[C@H]2CCN(C(=O)N3CCC4(CC3)CC(Oc3ccc(C(F)(F)F)cc3F)C4)C[C@@H]2N1 (single isomer, unassigned) [Example 27, (−)- or (+)-trans-6-[2-[2-Fluoro-4-(trifluoromethyl)phenoxy]-7-azaspiro[3.5]nonane-7-carbonyl]-4,4a,5,7,8,8a-hexahydropyrido[4,3-b][1,4]oxazin-3-one]	8.15
O=C1CO[C@@H]2CCN(C(=O)N3CCC(Cc4ccc(C(F)(F)F)cc4)CC3)C[C@H]2N1 (single isomer, unassigned) [Example 28, (+)- or (−)-trans-6-[4-[[4-(Trifluoromethyl)phenyl]methyl]piperidine-1-carbonyl]-4,4a,5,7,8,8a-hexahydropyrido[4,3-b][1,4]oxazin-3-one]	5.59
